Where a SMILES comes first, the peptide text is derived from it. Bridges are numbered along the chain shown (N, C = ends). [ ]: non-standard residue; d: D form.
Molecular target: T1, recombinant human VEGF165 (Homo sapiens, UniProt P15692)
T1 sequence (P15692 27-191 isoform P15692-4): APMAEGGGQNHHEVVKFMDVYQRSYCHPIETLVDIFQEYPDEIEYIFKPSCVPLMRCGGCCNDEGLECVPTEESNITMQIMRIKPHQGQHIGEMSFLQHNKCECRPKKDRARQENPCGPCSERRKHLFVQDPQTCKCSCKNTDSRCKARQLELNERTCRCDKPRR
Assay: VEGF peptide binding assay (competition ELISA, VEGF165 binding to coated VEGFR2/Fc)
Method: High-binding half-well 96-well plates (Costar #3690) were coated with recombinant human VEGFR2/Fc (50 ng/well) in 50 μl PBS, and incubated at 4° C. overnight. After washing the plates three times with 1× washing buffer (KPL Cat#50-65-00) and blocking with Superblock (Scytek #AAA500) at room temperature (RT) for 1 hour, VEGF-peptides of the invention were serially diluted (concentrations: 0.128-10,000 nM) in the presence of 25 ng/ml of recombinant human VEGF165 in […] Superblock, and were then added to the 96-well plates and incubated at RT for 1 hour. Peptides of the invention tested in this fashion were all capped at the amino terminus with a C(O)CH3 group and at the carboxyl terminus with a NH2 group. The plates were then washed three times with washing buffer, and a diluted (1:500) biotinylated anti-human VEGF antibody (R&D systems, Cat# BAF293) was added and incubated at RT for 2 hours. After washing the plates, streptavidin HRP conjugate (1:200 in Superblock) (R&D systems, Cat# DY998) was added to detect the bound anti-VEGF antibody, followed by addition of tetramethylbenzidine (TMB) substrate (Pierce, Cat#34021) for color development. The reaction was stopped with 2 M H2SO4. OD450 was measured using SpectraMax (Molecular Device) with a correction wavelength of 540 nm. The data were analyzed using Prism software. OD450 values were plotted as a function of the concentrations of the VEGF peptides. IC50 values, indicative of the potency of the VEGF peptides to inhibit VEGF-VEGFR2 interaction, were obtained using a sigmoid dose-response curve fit in Prism.

Row | SMILES | IC50 [nM]
1 | CC[C@H](C)[C@@H]1NC(=O)[C@H](CC(=O)O)NC(=O)[C@@H](NC(=O)[C@H](CC(N)=O)NC(=O)[C@@H]2CCCN2C(=O)[C@H](CCC(=O)O)NC(=O)[C@@H](NC(C)=O)C(C)C)CSSC[C@@H](C(=O)N[C@@H](Cc2ccccc2)C(=O)N[C@@H](CCC(=O)O)C(=O)N[C@@H](CCCNC(=N)N)C(=O)N[C@@H](CC(C)C)C(N)=O)NC(=O)[C@H](CCC(=O)O)NC(=O)[C@H](Cc2c[nH]c3ccccc23)NC(=O)[C@H](C(C)C)NC(=O)[C@H](Cc2c[nH]c3ccccc23)NC(=O)[C@H](CCSC)NC(=O)[C@H](C(C)C)NC(=O)[C@H](Cc2c[nH]cn2)NC1=O [Compound 64, V-E-P-N-C-D-I-H-V-M-W-V-W-E-C-F-E-R-L-] (Ac-VEPNCDIHVMWVWECFERL-NH2; disulfide 5-15 (inferred)) | 24
2 | CC[C@H](C)[C@@H]1NC(=O)[C@H](CC(=O)O)NC(=O)[C@@H](NC(=O)[C@H](CC(N)=O)NC(=O)[C@@H]2CCCN2C(=O)[C@H](CCC(=O)O)NC(=O)[C@@H](NC(C)=O)C(C)C)CSSC[C@@H](C(=O)N[C@@H](Cc2ccccc2)C(=O)N[C@@H](CCC(=O)O)C(=O)N[C@@H](CCCNC(=N)N)C(=O)N[C@@H](CC(C)C)C(N)=O)NC(=O)[C@H](CCC(=O)O)NC(=O)[C@H](Cc2c[nH]c3ccccc23)NC(=O)[C@H](CCC(=O)O)NC(=O)[C@H](Cc2c[nH]c3ccccc23)NC(=O)[C@H](CCSC)NC(=O)[C@H](C(C)C)NC(=O)[C@H](Cc2c[nH]cn2)NC1=O [Compound 34, V-E-P-N-C-D-I-H-V-M-W-E-W-E-C-F-E-R-L] (Ac-VEPNCDIHVMWEWECFERL-NH2; disulfide 5-15 (inferred)) | 188
3 | CC[C@H](C)[C@@H]1NC(=O)[C@H](CC(=O)O)NC(=O)[C@@H](NC(=O)[C@H](CC(N)=O)NC(=O)[C@@H]2CCCN2C(=O)[C@H](CCC(=O)O)NC(=O)[C@@H](NC(C)=O)C(C)C)CSSC[C@@H](C(=O)N[C@@H](Cc2ccccc2)C(=O)N[C@@H](CCC(=O)O)C(=O)N[C@@H](CCCNC(=N)N)C(=O)N[C@@H](CC(C)C)C(=O)N[C@@H](CC(C)C)C(=O)N[C@@H](CCCCNC(C)=O)C(N)=O)NC(=O)[C@H](CCC(=O)O)NC(=O)[C@H](Cc2c[nH]c3ccccc23)NC(=O)[C@H](C(C)C)NC(=O)[C@H](Cc2c[nH]c3ccccc23)NC(=O)[C@H](CCSC)NC(=O)[C@H](C(C)C)NC(=O)[C@H](Cc2c[nH]cn2)NC1=O [Compound 68, VEPNCDIHVMWVWECFERLL-(Kac)] (Ac-VEPNCDIHVMWVWECFERLLK(Ac)-NH2; disulfide 5-15 (inferred)) | 10
4 | CC[C@H](C)[C@@H]1NC(=O)[C@H](CC(=O)O)NC(=O)[C@@H](NC(=O)[C@H](CC(N)=O)NC(=O)[C@@H]2CCCN2C(=O)[C@H](CCC(=O)O)NC(=O)[C@@H](NC(C)=O)C(C)C)CSSC[C@@H](C(=O)N[C@@H](Cc2ccccc2)C(=O)N[C@@H](CCC(=O)O)C(=O)N[C@@H](CCCNC(=N)N)C(=O)N[C@@H](CC(C)C)C(=O)N[C@@H](Cc2ccc(O)cc2)C(=O)NCC(=O)N[C@@H](CC(C)C)C(=O)N[C@@H](CO)C(N)=O)NC(=O)[C@H](CCC(=O)O)NC(=O)[C@H](Cc2c[nH]c3ccccc23)NC(=O)[C@H](C(C)C)NC(=O)[C@H](Cc2c[nH]c3ccccc23)NC(=O)[C@H](CCSC)NC(=O)[C@H](C(C)C)NC(=O)[C@H](Cc2c[nH]cn2)NC1=O [Compound 71, VEPNCDIHVMWVWECFERLYGLS] (Ac-VEPNCDIHVMWVWECFERLYGLS-NH2; disulfide 5-15 (inferred)) | 5.4
5 | CC[C@H](C)[C@@H]1NC(=O)[C@H](CC(=O)O)NC(=O)[C@@H](NC(=O)[C@H](CC(N)=O)NC(=O)[C@@H]2CCCN2C(=O)[C@H](CCC(=O)O)NC(=O)[C@@H](NC(C)=O)C(C)C)CSSC[C@@H](C(=O)N[C@@H](Cc2ccccc2)C(=O)N[C@@H](CCC(=O)O)C(=O)N[C@@H](CCCNC(=N)N)C(=O)N[C@@H](CC(C)C)C(=O)N[C@H](CC(C)C)C(=O)N[C@@H](CCCCNC(C)=O)C(N)=O)NC(=O)[C@H](CCC(=O)O)NC(=O)[C@H](Cc2c[nH]c3ccccc23)NC(=O)[C@H](C(C)C)NC(=O)[C@H](Cc2c[nH]c3ccccc23)NC(=O)[C@H](CCSC)NC(=O)[C@H](C(C)C)NC(=O)[C@H](Cc2c[nH]cn2)NC1=O [Compound 60, V-E-P-N-C-D-I-H-V-M-W-V-W-E-C-F-E-R-L-(D-Leu)-(Kac)] (Ac-VEPNCDIHVMWVWECFERL[dL]K(Ac)-NH2; disulfide 5-15 (inferred)) | 25
6 | CC[C@H](C)[C@@H]1NC(=O)[C@H](CC(=O)O)NC(=O)[C@@H](NC(=O)[C@H](CC(N)=O)NC(=O)[C@@H]2CCCN2C(=O)[C@H](CCC(=O)O)NC(=O)[C@@H](NC(C)=O)C(C)C)CSSC[C@@H](C(=O)N[C@@H](Cc2ccccc2)C(=O)N[C@@H](CCC(=O)O)C(=O)N[C@@H](CCCNC(=N)N)C(=O)N[C@@H](CC(C)C)C(=O)N[C@@H](CCSC)C(=O)N[C@@H](CCCCN)C(N)=O)NC(=O)[C@H](CCC(=O)O)NC(=O)[C@H](Cc2c[nH]c3ccccc23)NC(=O)[C@H](C(C)C)NC(=O)[C@H](Cc2c[nH]c3ccccc23)NC(=O)[C@H](CCSC)NC(=O)[C@H](C(C)C)NC(=O)[C@H](Cc2c[nH]cn2)NC1=O [Compound 62, VEPNCDIHVMWVWECFERLMK] (Ac-VEPNCDIHVMWVWECFERLMK-NH2; disulfide 5-15 (inferred)) | 25
7 | CC[C@H](C)[C@H](NC(=O)[C@H](CC(C)C)NC(=O)[C@H](CCCNC(=N)N)NC(=O)[C@H](CCC(=O)O)NC(=O)[C@H](Cc1ccccc1)NC(=O)[C@@H]1CSSC[C@H](NC(=O)[C@H](CC(N)=O)NC(=O)[C@@H]2CCCN2C(=O)[C@H](CCC(=O)O)NC(=O)[C@@H](NC(C)=O)C(C)C)C(=O)N[C@@H](CC(=O)O)C(=O)N[C@@H]([C@@H](C)CC)C(=O)N[C@@H](Cc2c[nH]cn2)C(=O)N[C@@H](C(C)C)C(=O)N[C@@H](CCSC)C(=O)N[C@@H](Cc2c[nH]c3ccccc23)C(=O)N[C@@H](C(C)C)C(=O)N[C@@H](Cc2c[nH]c3ccccc23)C(=O)N[C@@H](CCC(=O)O)C(=O)N1)C(=O)N[C@@H](CCCCN)C(N)=O [Compound 57, VEPNCDIHVMWVWECFERLIK] (Ac-VEPNCDIHVMWVWECFERLIK-NH2; disulfide 5-15 (inferred)) | 25.4
8 | CC[C@H](C)[C@@H]1NC(=O)[C@H](CC(=O)O)NC(=O)[C@@H](NC(=O)[C@H](CC(N)=O)NC(=O)[C@@H]2CCCN2C(=O)[C@H](CCC(=O)O)NC(=O)[C@@H](NC(C)=O)C(C)C)CSSC[C@@H](C(=O)N[C@@H](Cc2ccccc2)C(=O)N[C@@H](CCC(=O)O)C(=O)N[C@@H](CCCNC(=N)N)C(=O)N[C@@H](CC(C)C)C(=O)N[C@@H](Cc2ccc(O)cc2)C(N)=O)NC(=O)[C@H](CCC(=O)O)NC(=O)[C@H](Cc2c[nH]c3ccccc23)NC(=O)[C@H](C(C)C)NC(=O)[C@H](Cc2c[nH]c3ccccc23)NC(=O)[C@H](CCSC)NC(=O)[C@H](C(C)C)NC(=O)[C@H](Cc2c[nH]cn2)NC1=O [Compound 41, VEPNCDIHVMWVWECFERLY] (Ac-VEPNCDIHVMWVWECFERLY-NH2; disulfide 5-15 (inferred)) | 69.9
9 | CC[C@H](C)[C@@H]1NC(=O)[C@H](CC(=O)O)NC(=O)[C@@H](NC(=O)[C@H](CC(N)=O)NC(=O)[C@@H]2CCCN2C(=O)[C@H](CCC(=O)O)NC(=O)[C@@H](NC(C)=O)C(C)C)CSSC[C@@H](C(=O)N[C@@H](Cc2ccccc2)C(=O)N[C@@H](CCC(=O)O)C(=O)N[C@@H](CCCNC(=N)N)C(=O)N[C@@H](CC(C)C)C(=O)N[C@@H](CC(C)C)C(=O)N[C@@H](CCCCN)C(N)=O)NC(=O)[C@H](CCC(=O)O)NC(=O)[C@H](Cc2c[nH]c3ccccc23)NC(=O)[C@H](C(C)C)NC(=O)[C@H](Cc2c[nH]c3ccccc23)NC(=O)[C@H](CCSC)NC(=O)[C@H](C(C)C)NC(=O)[C@H](Cc2c[nH]cn2)NC1=O [Compound 67, VEPNCDIHVMWVWECFERLLK] (Ac-VEPNCDIHVMWVWECFERLLK-NH2; disulfide 5-15 (inferred)) | 10.1
10 | CC[C@H](C)[C@@H]1NC(=O)[C@H](CC(=O)O)NC(=O)[C@@H](NC(=O)[C@H](CC(N)=O)NC(=O)[C@@H]2CCCN2C(=O)[C@H](CCC(=O)O)NC(=O)[C@@H](NC(C)=O)C(C)C)CSSC[C@@H](C(=O)N[C@@H](Cc2ccccc2)C(=O)N[C@@H](CCC(=O)O)C(=O)N[C@@H](CCCNC(=N)N)C(=O)N[C@@H](CC(C)C)C(=O)N[C@@H](Cc2ccc(O)cc2)C(=O)NCC(=O)N2CCC[C@H]2C(=O)N[C@@H](Cc2c[nH]c3ccccc23)C(N)=O)NC(=O)[C@H](CCC(=O)O)NC(=O)[C@H](Cc2c[nH]c3ccccc23)NC(=O)[C@H](C(C)C)NC(=O)[C@H](Cc2c[nH]c3ccccc23)NC(=O)[C@H](CCSC)NC(=O)[C@H](C(C)C)NC(=O)[C@H](Cc2c[nH]cn2)NC1=O [Compound 66, VEPNCDIHVMWVWECFERLYGPW] (Ac-VEPNCDIHVMWVWECFERLYGPW-NH2; disulfide 5-15 (inferred)) | 18.7
